Entries after “also recorded” stand apart in the source; their conditions may differ. Residues, ends and D or L forms follow the SMILES beside them. *: point of attachment. Palmitoyl = CCCCCCCCCCCCCCCC(=O)*
Assays:
Format in all cases: cell-based
FPR2 [1] = target: T1, FPR2 (Homo sapiens, UniProt P25090); assay: Inhibition of WKYMVM-induced superoxide release, human neutrophils
T1 construct: Human peripheral blood neutrophils were isolated from buffy coats from healthy blood donors; endogenous in cells; host or cells: human peripheral blood neutrophils from buffy coats of healthy donors
T1 sequence (P25090 1-351): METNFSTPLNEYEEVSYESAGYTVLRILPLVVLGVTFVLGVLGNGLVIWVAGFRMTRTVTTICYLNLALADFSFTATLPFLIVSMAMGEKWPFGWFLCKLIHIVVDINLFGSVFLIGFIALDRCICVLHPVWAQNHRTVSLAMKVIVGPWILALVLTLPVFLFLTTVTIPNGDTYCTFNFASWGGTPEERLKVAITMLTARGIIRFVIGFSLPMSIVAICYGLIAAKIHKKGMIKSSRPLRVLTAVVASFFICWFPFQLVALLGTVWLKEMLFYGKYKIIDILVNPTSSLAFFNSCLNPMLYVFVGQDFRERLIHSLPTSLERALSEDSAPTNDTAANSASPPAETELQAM
Source text: (§1) Human peripheral blood neutrophils were isolated from buffy coats from healthy blood donors using dextran sedimentation and Ficoll-Paque gradient centrifugation as described. The remaining erythrocytes were disrupted by hypotonic lysis and the neutrophils were washed twice, suspended in KRG and, stored on melting ice until use. This isolation process permits cells to be purified with minimal granule mobilization. The buffy coats were obtained from the blood bank at Sahlgrenska University Hospital. Ethics approval was not needed since the buffy coats were provided anonymously and could not be traced back to a specific individual. This is in line with Swedish legislation section code 4§ 3p SFS 2003:460 (Lag om etikprövning av forskning som avser människor).
(§2) NADPH-oxidase activity was determined using an isoluminol and HRP-enhanced chemiluminescence (CL) system that allow for the determination of superoxide production. The CL activity was measured in a six-channel Biolumat LB 9505 apparatus (Berthold Co., Wildbad, Germany), using disposable 4-mL polypropylene tubes with 1 mL reaction mixture. The tubes contained 4 U HRP and 10 μg/mL isoluminol together with the cells that were equilibrated in the Biolumat for 5 min at 37°C, after which the stimulus solution (100 μL) was added. The light emission was recorded continuously over time and presented as superoxide production (in arbitrary light units, cpm x10^-6) as a function of time (min). The activity before stimulus addition was recorded as basal line and this activity was not changed in vehicle control samples. […]
Data analysis was performed using Graph Pad Prism 7.0. The EC50/IC50 values were determined from experiments in which the activities were normalized to the response induced by maximal response or induced by agonist in the absence of inhibitor. […]
Human neutrophils (10^5 cells) were pre-incubated without (solid line) or with mF2Pal16 (1 μM) for 5 min before stimulation with A) the FPR2 specific agonist WKYMVM (50 nM, indicated by the arrow). […] The release of superoxide anions was measured continuously. […]

FPR2 [2] = assay: Receptor preference in human neutrophils (FPR2 versus FPR1); conditions: conclusion from superoxide release experiments
Source text: as §1
as §2, with “The tubes contained 4 U HRP and 10 μg/mL isoluminol together with the cells that were equilibrated in the Biolumat for 5 min at 37°C, after which the stimulus solution (100 μL) was added.” left out

FPR2 [3] = assay: Inhibition of PSMα2-induced superoxide release, human neutrophils
Source text: as §1
as §2, with “The tubes contained 4 U HRP and 10 μg/mL isoluminol together with the cells that were equilibrated in the Biolumat for 5 min at 37°C, after which the stimulus solution (100 μL) was added.” left out

FPR1 = assay: Inhibition of fMLF-induced superoxide release, human neutrophils; conditions: pepducin 1 μM; fMLF 50 nM
Source text: as §1
as §2, with “The tubes contained 4 U HRP and 10 μg/mL isoluminol together with the cells that were equilibrated in the Biolumat for 5 min at 37°C, after which the stimulus solution (100 μL) was added.” left out

Fpr2 [4] = target: T2, Fpr2 (Mus musculus, UniProt O88536); assay: Receptor preference in mouse neutrophils (Fpr2 versus Fpr1); conditions: conclusion from superoxide release, Fpr2^-/- cells, desensitization and inhibitors
T2 construct: WT mouse neutrophils (5 x 10^4 cells) were pre-incubated without (solid line) or with mF2Pal16; endogenous in cells; host or cells: bone marrow neutrophils of C57BL/6 wild-type mice, TNF-alpha primed
T2 sequence (O88536 1-351): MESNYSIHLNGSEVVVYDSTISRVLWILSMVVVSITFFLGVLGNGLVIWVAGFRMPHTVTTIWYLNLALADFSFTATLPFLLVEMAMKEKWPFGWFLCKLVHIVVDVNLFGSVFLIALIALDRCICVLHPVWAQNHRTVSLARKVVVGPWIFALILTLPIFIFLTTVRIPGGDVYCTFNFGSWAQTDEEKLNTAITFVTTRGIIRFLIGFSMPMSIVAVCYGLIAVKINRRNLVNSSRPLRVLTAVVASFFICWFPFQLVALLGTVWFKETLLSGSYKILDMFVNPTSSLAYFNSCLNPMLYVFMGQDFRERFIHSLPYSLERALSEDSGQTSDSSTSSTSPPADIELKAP
Source text: C57BL/6 wild-type mice were purchased from Charles River Laboratories and Fpr2^−/− mice generated as described previously, were generously provided by Dr Ji Ming Wang, Frederick National Laboratory for Cancer Research, USA. Mice were kept under standard temperature and light conditions and fed laboratory chow and water ad libitum, at the Department of Rheumatology and Inflammation Research, University of Gothenburg. Sex matched WT and Fpr2^-/- animals (age 8–10 weeks) were used to isolated bone marrow derived neutrophils. The studies performed were approved by the Ethical Committee for Animal Experimentation, Göteborg, Sweden.
Mice (8–12 weeks of age) were killed by cervical dislocation, the femurs and tibias were removed and freed of soft tissue attachments, and the extreme distal tip of each extremity was cut off. […] The cell number and population of bone marrow cells were determined by flow cytometry based on forward scatter (size) and side scatter (density) localization.
NADPH-oxidase activity was determined using an isoluminol and HRP-enhanced chemiluminescence (CL) system that allow for the determination of superoxide production. The CL activity was measured in a six-channel Biolumat LB 9505 apparatus (Berthold Co., Wildbad, Germany), using disposable 4-mL polypropylene tubes with 1 mL reaction mixture. […]

CCCCCCCCCCCCCCCC(=O)N[C@@H](CCCCN)C(=O)N[C@H](C(=O)N[C@@H](CC(N)=O)C(=O)N[C@@H](CCCNC(=N)N)C(=O)N[C@@H](CCCNC(=N)N)C(=O)N[C@@H](CC(N)=O)C(=O)N[C@@H](CC(C)C)C(=O)N[C@H](C(=O)N[C@@H](CC(N)=O)C(=O)N[C@@H](CO)C(=O)N[C@@H](CO)C(=O)N[C@@H](CCCNC(=N)N)C(=O)N1CCC[C@H]1C(=O)N[C@@H](CC(C)C)C(=O)N[C@@H](CCCNC(=N)N)C(=O)N[C@H](C(=O)O)C(C)C)C(C)C)[C@@H](C)CC [mF2Pal16] (Palmitoyl-KINRRNLVNSSRPLRV-OH; C-terminus assumed) was tested, and the “magnitude of FPR2 inhibitory effect compared with PBP10” value (FPR2 [1]; human neutrophils) was “not of the same magnitude as that of the most potent FPR2 inhibitor PBP10”, the “effect on WKYMVM response, human neutrophils” value (FPR2 [1]; pepducin 1 μM pre-incubated (mF2Pal16, F1Pal16: 5 min), WKYMVM 50 nM) was “largely inhibited” and the “receptor preference / modulation of FPR2 (versus FPR1) in human neutrophils” value (FPR2 [2]) was “potent and selective inhibitor for Fpr2/FPR2; also recorded: inhibits the activity of FPR2 in human neutrophils”. The “effect on PSMα2 response, human neutrophils” value (FPR2 [3]) was “largely inhibited”, the “effect on fMLF response, human neutrophils” value (FPR1) was “lack of inhibitory effect” and the “receptor preference / modulation of Fpr2 (versus Fpr1) in mouse neutrophils” value (Fpr2 [4]) was “inhibits the activity of Fpr2 in mouse neutrophils; also recorded: potent and selective inhibitor for Fpr2/FPR2; also recorded: targets this receptor”.

— paper PMC5608352, “Formyl peptide derived lipopeptides disclose differences between the receptors in mouse and men and call the pepducin concept in question” (PLoS ONE, 2017)
